Results: PMC8722715 (Frontiers in Cell and Developmental Biology, 2021)

Legend:
hNaV1.7 channel = biological target: T1, hNaV1.7 channel (Homo sapiens, UniProt Q15858); test: Automated patch-clamp block of hNaV1.7 peak Na+ current in CHO cells; format: cell-based; details: for IC50: CHO cells stably expressing hNaV1.7, SyncroPatch 384 PE whole-cell, holding -100 mV, -10 mV test pulse 50 ms every 5 s, room temperature 18-22°C, 0.3% BSA, steady state or end of 15-min application, mean, S.E.M. and n cells; for hNaV1.7/hNaV1.6 selectivity ratio: inverse ratio of the mean IC50 values on hNaV1.7 (CHO) and hNaV1.6 (HEK-293) of Table 1; for hNaV1.7 IC50 versus WT: ratio of analogue mean IC50 to HwTx-IV WT mean IC50 on hNaV1.7
T1 construct: expressed in transfected cells
Experimental: (§1) CHO cells stably expressing the hNaV1.7 channel subtype were cultured in Dulbecco’s Modified Eagle’s Medium F-12 (DMEM/F12) supplemented with 10% fetal bovine serum, 2 mM glutamine, 200 μg/ml hygromycine B, 10 U/ml penicillin and 10 μg/ml streptomycin (Gibco, Grand Island, NY). HEK-293 cells stably expressing the hNaV1.6 channel subtype were cultured in Dulbecco’s Modified Eagle’s Medium (DMEM) supplemented with 10% fetal calf serum, 1 mM pyruvic acid, 4.5 g/L glucose, 2 mM glutamine, 800 μg/ml G418, 10 U/ml penicillin and 10 μg/ml streptomycin (Gibco, Grand Island, NY). All cell lines were incubated at 37°C in a 5% CO2 atmosphere. For electrophysiological recordings, cells were detached with trypsin, and floating single cells were diluted (∼300,000 cells/ml) in an extracellular solution containing (in mM): 140 NaCl, 4 KCl, 2 CaCl2, 1 MgCl2, 5 glucose and 10 HEPES (pH 7.4, osmolarity 298 mOsm), that was used throughout the experiments.
HwTx-IV analogues were investigated on CHO cells expressing hNav1.7 channel and HEK-293 cells expressing hNaV1.6 channel using the automated patch-clamp system from Nanion (SyncroPatch 384 PE; München, Germany). Chips with single-hole and high-resistance (∼6–7 MΩ) were used for both cell lines. Voltage pulses and whole-cell recordings were achieved using the PatchControl384 v1.5.2 software (Nanion) and the Biomek v1.0 interface (Beckman Coulter). Prior to recordings, dissociated cells were shaken at 200 RPM in a cell hotel reservoir at 10°C. After cell catching, sealing, whole-cell formation, liquid application, recording, and data acquisition were all performed sequentially and automatically. The intracellular solution contained (in mM): 110 CsF, 10 CsCl, 10 NaCl, 1 MgCl2, 1 CaCl2, 10 EGTA and 10 HEPES (pH 7.2, osmolarity 280 mOsm), and the extracellular solution was as described above. Whole-cell experiments were done at −100 mV holding potential and at room temperature (18–22°C), while currents triggered at either −10 or 0 mV test potential were sampled at 20 kHz. Stimulation frequency was set at 0.2 Hz. Each HwTx-IV analogue was prepared at various concentrations in the extracellular solution, itself supplemented with 0.3% of bovine serum albumin (BSA), also added in the control solution. […] Compound solutions were diluted 3 times in the patch-clamp recording well by adding 30–60 μl external solution, to reach the final reported concentration and the test volume of 90 μl. For establishing dose-response curves, the compounds were tested at a test potential of either −10 or 0 mV for 50 ms with a pulse every 5 s. Percentages of current inhibition were measured at steady-state of blockage or at the end of a 15-min application time.

hNaV1.6 channel = biological target: T2, hNaV1.6 channel (Homo sapiens, UniProt Q9UQD0); test: Automated patch-clamp block of hNaV1.6 peak Na+ current in HEK-293 cells; format: cell-based; details: for IC50: HEK-293 cells stably expressing hNaV1.6, SyncroPatch 384 PE whole-cell, holding -100 mV, 0 mV test pulse 50 ms every 5 s, room temperature 18-22°C, 0.3% BSA, steady state or end of 15-min application, mean, S.E.M. and n cells; for hNaV1.6 IC50 versus WT: ratio of analogue mean IC50 to HwTx-IV WT mean IC50 on hNaV1.6
T2 construct: expressed in transfected cells
Experimental: as §1
HwTx-IV analogues were investigated on CHO cells expressing hNav1.7 channel and HEK-293 cells expressing hNaV1.6 channel using the automated patch-clamp system from Nanion (SyncroPatch 384 PE; München, Germany). Chips with single-hole and high-resistance (∼6–7 MΩ) were used for both cell lines. Voltage pulses and whole-cell recordings were achieved using the PatchControl384 v1.5.2 software (Nanion) and the Biomek v1.0 interface (Beckman Coulter). Prior to recordings, dissociated cells were shaken at 200 RPM in a cell hotel reservoir at 10°C. After cell catching, sealing, whole-cell formation, liquid application, recording, and data acquisition were all performed sequentially and automatically. The intracellular solution contained (in mM): 110 CsF, 10 CsCl, 10 NaCl, 1 MgCl2, 1 CaCl2, 10 EGTA and 10 HEPES (pH 7.2, osmolarity 280 mOsm), and the extracellular solution was as described above. Whole-cell experiments were done at −100 mV holding potential and at room temperature (18–22°C), while currents triggered at either −10 or 0 mV test potential were sampled at 20 kHz. Stimulation frequency was set at 0.2 Hz. Each HwTx-IV analogue was prepared at various concentrations in the extracellular solution, itself supplemented with 0.3% of bovine serum albumin (BSA), also added in the control solution. The peptides were distributed in 384-well microplates according to the number of compounds to be tested (generally four), the concentration range defined from the IC50 of wild-type HwTx-IV, and the number of cells desired for each experimental condition. Compound solutions were diluted 3 times in the patch-clamp recording well by adding 30–60 μl external solution, to reach the final reported concentration and the test volume of 90 μl. For establishing dose-response curves, the compounds were tested at a test potential of either −10 or 0 mV for 50 ms with a pulse every 5 s. Percentages of current inhibition were measured at steady-state of blockage or at the end of a 15-min application time.

T2 sequence (Q9UQD0 whole entry): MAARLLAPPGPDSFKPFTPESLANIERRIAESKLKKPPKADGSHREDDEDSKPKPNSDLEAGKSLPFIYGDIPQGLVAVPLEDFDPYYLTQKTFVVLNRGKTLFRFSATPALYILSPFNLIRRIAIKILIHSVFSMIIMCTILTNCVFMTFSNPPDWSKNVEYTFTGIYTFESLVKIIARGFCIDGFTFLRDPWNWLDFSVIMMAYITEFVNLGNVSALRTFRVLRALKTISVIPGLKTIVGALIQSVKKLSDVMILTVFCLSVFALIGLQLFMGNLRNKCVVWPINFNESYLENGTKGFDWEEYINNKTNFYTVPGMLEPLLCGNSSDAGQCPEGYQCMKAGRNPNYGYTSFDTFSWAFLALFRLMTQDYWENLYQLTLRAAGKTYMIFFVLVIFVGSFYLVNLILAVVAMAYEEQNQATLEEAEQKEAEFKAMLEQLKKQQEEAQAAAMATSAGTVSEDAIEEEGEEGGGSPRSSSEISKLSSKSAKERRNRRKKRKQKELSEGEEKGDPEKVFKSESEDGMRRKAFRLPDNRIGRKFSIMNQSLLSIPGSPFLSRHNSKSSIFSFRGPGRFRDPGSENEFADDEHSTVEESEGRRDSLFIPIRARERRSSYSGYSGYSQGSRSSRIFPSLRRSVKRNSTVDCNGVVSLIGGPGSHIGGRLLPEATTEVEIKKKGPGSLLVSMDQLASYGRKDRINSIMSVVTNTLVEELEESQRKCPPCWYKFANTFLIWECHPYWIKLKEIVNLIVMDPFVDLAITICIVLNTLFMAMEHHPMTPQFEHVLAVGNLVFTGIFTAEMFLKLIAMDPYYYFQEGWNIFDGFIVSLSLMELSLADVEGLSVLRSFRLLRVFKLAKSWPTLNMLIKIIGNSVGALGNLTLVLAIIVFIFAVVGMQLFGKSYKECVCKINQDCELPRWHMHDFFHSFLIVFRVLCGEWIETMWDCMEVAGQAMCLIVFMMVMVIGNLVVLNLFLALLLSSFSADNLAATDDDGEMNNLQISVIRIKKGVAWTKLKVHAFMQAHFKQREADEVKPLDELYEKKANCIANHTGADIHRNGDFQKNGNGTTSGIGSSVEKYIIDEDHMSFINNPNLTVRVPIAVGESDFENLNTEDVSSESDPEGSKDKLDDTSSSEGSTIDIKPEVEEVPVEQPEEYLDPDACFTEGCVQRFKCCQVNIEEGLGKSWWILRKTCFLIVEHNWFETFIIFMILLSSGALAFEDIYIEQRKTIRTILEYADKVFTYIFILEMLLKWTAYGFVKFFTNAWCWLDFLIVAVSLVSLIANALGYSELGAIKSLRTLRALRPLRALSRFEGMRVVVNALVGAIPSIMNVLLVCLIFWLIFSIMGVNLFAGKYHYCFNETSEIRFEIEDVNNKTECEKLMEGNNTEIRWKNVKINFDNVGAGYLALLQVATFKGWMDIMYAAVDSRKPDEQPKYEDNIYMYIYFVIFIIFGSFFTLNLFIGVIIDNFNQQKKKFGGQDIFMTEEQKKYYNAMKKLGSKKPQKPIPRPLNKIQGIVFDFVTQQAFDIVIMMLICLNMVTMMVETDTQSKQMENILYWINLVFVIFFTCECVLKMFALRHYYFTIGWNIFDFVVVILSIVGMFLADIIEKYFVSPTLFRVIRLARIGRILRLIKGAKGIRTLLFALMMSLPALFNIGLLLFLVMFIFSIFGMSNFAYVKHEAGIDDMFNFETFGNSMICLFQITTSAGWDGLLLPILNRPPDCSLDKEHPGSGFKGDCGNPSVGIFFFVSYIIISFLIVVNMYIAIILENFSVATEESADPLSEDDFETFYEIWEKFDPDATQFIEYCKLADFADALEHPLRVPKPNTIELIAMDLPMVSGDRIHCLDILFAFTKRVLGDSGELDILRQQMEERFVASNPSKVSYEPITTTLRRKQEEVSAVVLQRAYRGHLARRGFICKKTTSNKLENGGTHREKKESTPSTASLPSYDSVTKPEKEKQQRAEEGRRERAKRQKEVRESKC
T1 sequence (Q15858 whole entry): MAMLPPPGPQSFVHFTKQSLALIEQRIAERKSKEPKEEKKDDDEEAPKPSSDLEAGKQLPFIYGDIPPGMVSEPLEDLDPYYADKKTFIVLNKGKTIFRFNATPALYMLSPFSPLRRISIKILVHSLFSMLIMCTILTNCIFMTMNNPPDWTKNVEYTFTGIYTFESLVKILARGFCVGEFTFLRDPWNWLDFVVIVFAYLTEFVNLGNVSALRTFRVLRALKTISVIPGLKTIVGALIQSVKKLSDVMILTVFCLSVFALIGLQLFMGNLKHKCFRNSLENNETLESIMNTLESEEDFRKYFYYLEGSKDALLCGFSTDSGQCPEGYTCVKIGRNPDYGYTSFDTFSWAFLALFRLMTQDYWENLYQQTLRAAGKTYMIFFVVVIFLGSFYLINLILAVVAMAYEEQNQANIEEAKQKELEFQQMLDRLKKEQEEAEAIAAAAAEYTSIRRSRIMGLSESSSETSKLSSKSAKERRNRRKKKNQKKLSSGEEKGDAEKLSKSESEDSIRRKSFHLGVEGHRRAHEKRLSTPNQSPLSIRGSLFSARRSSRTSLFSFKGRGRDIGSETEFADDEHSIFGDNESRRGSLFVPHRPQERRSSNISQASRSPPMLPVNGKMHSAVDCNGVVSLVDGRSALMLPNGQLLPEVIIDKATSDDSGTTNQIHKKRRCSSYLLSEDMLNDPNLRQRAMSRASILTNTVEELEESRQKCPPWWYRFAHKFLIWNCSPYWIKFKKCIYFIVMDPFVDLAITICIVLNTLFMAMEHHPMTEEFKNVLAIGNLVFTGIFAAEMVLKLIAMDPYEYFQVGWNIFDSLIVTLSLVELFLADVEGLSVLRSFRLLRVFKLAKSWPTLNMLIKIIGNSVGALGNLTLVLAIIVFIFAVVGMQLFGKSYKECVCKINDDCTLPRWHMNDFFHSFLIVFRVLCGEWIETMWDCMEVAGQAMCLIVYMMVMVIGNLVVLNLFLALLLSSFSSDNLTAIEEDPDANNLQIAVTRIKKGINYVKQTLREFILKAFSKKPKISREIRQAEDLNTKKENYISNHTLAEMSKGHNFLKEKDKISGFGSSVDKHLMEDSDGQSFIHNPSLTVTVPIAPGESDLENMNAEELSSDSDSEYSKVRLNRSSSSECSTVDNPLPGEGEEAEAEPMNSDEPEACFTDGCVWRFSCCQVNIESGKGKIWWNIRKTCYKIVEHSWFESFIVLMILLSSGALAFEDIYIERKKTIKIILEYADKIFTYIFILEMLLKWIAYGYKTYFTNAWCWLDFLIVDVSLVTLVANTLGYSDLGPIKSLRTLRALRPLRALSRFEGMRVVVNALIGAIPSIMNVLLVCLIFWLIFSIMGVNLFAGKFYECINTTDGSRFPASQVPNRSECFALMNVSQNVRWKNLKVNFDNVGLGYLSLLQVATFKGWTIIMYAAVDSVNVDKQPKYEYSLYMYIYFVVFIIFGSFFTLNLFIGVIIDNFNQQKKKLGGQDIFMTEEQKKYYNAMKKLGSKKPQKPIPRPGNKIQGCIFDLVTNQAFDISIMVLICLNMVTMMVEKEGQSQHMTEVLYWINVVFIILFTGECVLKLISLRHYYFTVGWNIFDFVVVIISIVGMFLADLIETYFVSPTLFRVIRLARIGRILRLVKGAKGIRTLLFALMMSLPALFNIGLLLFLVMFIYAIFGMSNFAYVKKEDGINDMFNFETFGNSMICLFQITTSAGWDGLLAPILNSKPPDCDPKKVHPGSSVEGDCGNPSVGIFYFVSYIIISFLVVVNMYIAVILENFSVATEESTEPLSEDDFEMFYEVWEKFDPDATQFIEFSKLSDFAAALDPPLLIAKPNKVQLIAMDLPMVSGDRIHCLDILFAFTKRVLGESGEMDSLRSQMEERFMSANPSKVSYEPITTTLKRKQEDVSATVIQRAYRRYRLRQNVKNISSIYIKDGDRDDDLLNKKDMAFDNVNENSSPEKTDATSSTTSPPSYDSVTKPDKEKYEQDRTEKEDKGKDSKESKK

With `CC[C@H](C)[C@H](NC(=O)[C@H](CCC(N)=O)NC(=O)[C@H](Cc1ccc(O)cc1)NC(=O)[C@H](CCCCN)NC(=O)[C@@H]1CSSC[C@@H]2NC(=O)[C@H](CCC(N)=O)NC(=O)[C@H](CC(=O)O)NC(=O)[C@H](CC(N)=O)NC(=O)[C@H](CO)NC(=O)[C@@H]3CCCN3C(=O)[C@H](CC(N)=O)NC(=O)[C@@H]3CSSC[C@H](NC(=O)[C@H](C(C)C)NC(=O)[C@H](CC(C)C)NC(=O)[C@H](CCCCN)NC(=O)[C@H](CO)NC(=O)[C@H](CO)NC(=O)[C@H](C)NC(=O)[C@H](CSSC[C@H](NC(=O)[C@@H](N)CCC(=O)O)C(=O)N[C@@H](CC(C)C)C(=O)N[C@@H](CCC(=O)O)C(=O)N[C@@H]([C@@H](C)CC)C(=O)N[C@@H](Cc4ccccc4)C(=O)N[C@@H](CCCCN)C(=O)N[C@@H](C)C(=O)N3)NC2=O)C(=O)N[C@@H](CO)C(=O)N[C@@H](CCCNC(=N)N)C(=O)N[C@@H](CCCCN)C(=O)N[C@@H]([C@@H](C)O)C(=O)N[C@@H](CCCNC(=N)N)C(=O)N[C@@H](Cc2c[nH]c3ccccc23)C(=O)N1)C(N)=O` [HwTx-IV K^18A] the IC50 (hNaV1.7 channel) was 6.4 nM, the hNaV1.7/hNaV1.6 selectivity ratio (hNaV1.7 channel) was “above 46” and the “hNaV1.7 IC50 versus WT” value (hNaV1.7 channel) was 0.65. The IC50 (hNaV1.6 channel) was 416 nM and the “hNaV1.6 IC50 versus WT” value (hNaV1.6 channel) was 1.84.
For `CC[C@H](C)[C@H](NC(=O)[C@H](CCC(N)=O)NC(=O)[C@H](Cc1ccc(O)cc1)NC(=O)[C@H](CCCCN)NC(=O)[C@@H]1CSSC[C@@H]2NC(=O)[C@H](CCC(N)=O)NC(=O)[C@H](CC(=O)O)NC(=O)[C@H](CC(N)=O)NC(=O)[C@H](CO)NC(=O)[C@@H]3CCCN3C(=O)[C@H](CC(N)=O)NC(=O)[C@@H]3CSSC[C@H](NC(=O)[C@H](C(C)C)NC(=O)[C@H](CC(C)C)NC(=O)[C@H](CCCCN)NC(=O)[C@H](CO)NC(=O)[C@H](CO)NC(=O)[C@H](CCCCN)NC(=O)[C@H](CSSC[C@H](NC(=O)CN)C(=O)N[C@@H](CC(C)C)C(=O)NCC(=O)N[C@@H]([C@@H](C)CC)C(=O)N[C@@H](Cc4ccccc4)C(=O)N[C@@H](CCCCN)C(=O)N[C@@H](C)C(=O)N3)NC2=O)C(=O)N[C@@H](CO)C(=O)N[C@@H](CCCNC(=N)N)C(=O)N[C@@H](CCCCN)C(=O)N[C@@H]([C@@H](C)O)C(=O)N[C@@H](CCCNC(=N)N)C(=O)N[C@@H](Cc2c[nH]c3ccccc23)C(=O)N1)C(N)=O` [HwTx-IV E^1G/E^4G], the IC50 (hNaV1.7 channel) was 2 nM, the hNaV1.7/hNaV1.6 selectivity ratio (hNaV1.7 channel) was “less than 2” and the “hNaV1.7 IC50 versus WT” value (hNaV1.7 channel) was 0.20. For the same compound, the IC50 (hNaV1.6 channel) was 3.7 nM and the “hNaV1.6 IC50 versus WT” value (hNaV1.6 channel) was 0.02.
With `CC[C@H](C)[C@H](NC(=O)[C@H](CCC(N)=O)NC(=O)[C@H](Cc1c[nH]c2ccccc12)NC(=O)[C@H](CCCCN)NC(=O)[C@@H]1CSSC[C@@H]2NC(=O)[C@H](CCC(N)=O)NC(=O)[C@H](CC(=O)O)NC(=O)[C@H](CC(N)=O)NC(=O)[C@H](CO)NC(=O)[C@@H]3CCCN3C(=O)[C@H](CC(N)=O)NC(=O)[C@@H]3CSSC[C@H](NC(=O)[C@H](C(C)C)NC(=O)[C@H](CC(C)C)NC(=O)[C@H](CCCCN)NC(=O)[C@H](CO)NC(=O)[C@H](CO)NC(=O)[C@H](CCCCN)NC(=O)[C@H](CSSC[C@H](NC(=O)[C@@H](N)CCC(=O)O)C(=O)N[C@@H](CC(C)C)C(=O)N[C@@H](CCC(=O)O)C(=O)N[C@@H]([C@@H](C)CC)C(=O)N[C@@H](Cc4ccccc4)C(=O)N[C@@H](CCCCN)C(=O)N[C@@H](C)C(=O)N3)NC2=O)C(=O)N[C@@H](CO)C(=O)N[C@@H](CCCNC(=N)N)C(=O)N[C@@H](CCCCN)C(=O)N[C@@H]([C@@H](C)O)C(=O)N[C@@H](CCCNC(=N)N)C(=O)N[C@@H](Cc2c[nH]c3ccccc23)C(=O)N1)C(N)=O` [HwTx-IV Y^33W] the IC50 (hNaV1.7 channel) was 22.2 nM, the “hNaV1.7 IC50 versus WT” value (hNaV1.7 channel) was 2.24 and the IC50 (hNaV1.6 channel) was 207 nM. For the same compound, the “hNaV1.6 IC50 versus WT” value (hNaV1.6 channel) was 0.91.
